# Measurements as given in patent US20260048046A1, “METHOD FOR IMPROVING GROWTH PERFORMANCE IN FEEDLOT CATTLE” (Elanco US Inc., priority 2022, published 2026).
# Test system: beef cattle
# Experiment: 91-d study: growth performance of beef cattle fed lubabegron
# Format: in vivo
# Conditions: for ADG / DMI / G:F / Unshrunk final BW: 91-d treatment, LS mean
# Text: A randomized complete block design was used to evaluate the effect of lubabegron (LUB) on performance over a 91-d period using 336 beef cattle (BW=453±34.5 kg) housed in cattle pen enclosures (CPE). Four LUB treatments were included in the study based on dose: 0.0 (control or CON), 1.38, 5.5, and 22.0 (mg·kg^−1 of DM). Because there was a limited number of CPE (n=8), three sequential cycles (blocks) were required to generate 6 replicates of each dose×sex combination. As such, 112 cattle (56 steers and 56 heifers) were housed concurrently within each cycle across the eight CPE (14 cattle/CPE), with each dose×sex combination being represented by a single CPE/cycle. To assure different frame sizes of cattle were represented, cattle in cycles one and three were large-frame Continental crossbreds, whereas cattle in cycle 2 were medium-frame British crossbreds.
# Treatment administration for the three cycles occurred from April through July, August through November, and December through March of 2014 and 2015, respectively. Four weeks before beginning treatments for each cycle (day −28), up to 145 cattle were sourced from a common origin and transported to the study site at the University of California-Davis to be group-housed in single-sexed outdoor pens. The presence of growth-promoting implants was assessed, and any preexisting implants were excised before shipment to the study site to ensure they had been implant-free for a minimum of 28 d before treatments began on day 0. No additional implants were used in these cattle, and they were considered nonimplanted.
# On day −8, cattle were screened for abnormal health conditions by a veterinarian and ranked by BW to identify the 56 eligible cattle within each sex that provided the narrowest weight range. The following day (day −7), the 56 cattle selected for study enrollment. within each sex were grouped into sets of four consecutively weight-ranked cattle. Cattle were then randomly allocated to their respective treatment within each weight group and transferred into the CPE. The CPE were randomly assigned to sex and dose treatment before each cycle, and all study personnel were blinded to treatments throughout the duration of the study. All cattle were fed the negative control basal finishing diet (Table 1) for 1 week (days −7 to −1) after being placed into the CPE to allow for acclimation before beginning treatments.
# Treatments began on day 0 and cattle in each CPE received their respective treatment for 91 d. Emission measurements began at 0800 hours on day 0 and ended at 0500 hours on day 91, immediately preceding cattle removal from the CPE for final BW measurements and transportation to the commercial slaughter facility.
# Cattle had been fed a concentrate-based diet in a commercial setting before arrival at the study site on day −28, at which point they were provided ad libitum access to water and re-acclimated to a concentrate-based diet using a step-up program involving two intermediate diets based on increasing concentrate levels (˜60% and 70%, respectively) and varying proportions of alfalfa and wheat hay. On day −14, cattle were transitioned onto a finishing diet (Table 1) formulated to meet, or exceed, the minimum nutrient requirements for growing beef cattle (NRC, 2000) that was then fed for the remainder of the study. A nonmedicated supplement (i.e., type B feed with a ground corn carrier) was included as 2.5% of the diet DM during acclimation for all cattle from day −14 until the beginning of treatment administration. On day 0, one of four type B supplements were added to the basal diet to provide either 0.0 (CON), 1.38, 5.5, or 22.0 mg·kg^−1 (DM basis) LUB in a type C (i.e., final feed) medicated feed. All type C feeds containing the appropriate concentrations of LUB or CON were prepared at the study site by adding the same proportions of Type B supplement, water, and basal ration in a rotary mixer wagon (Roto-Mix Forage Express, Dodge City, KS). […]
smiles,measurement,setting,value
"CC(C)(Cc1ccc(Oc2ncccc2C#N)cc1)NC[C@H](O)COc1ccccc1-c1cccs1 [LUB, 2-{4-[2-({(2S)-2-Hydroxy-3-[2-(2-thienyl)phenoxy]propyl}amino)-2-methylpropyl]phenoxy}nicotinonitrile]",Effect of LUB treatment on final BW,"91 d, all LUB doses vs CON, P=0.257",not altered
same,Effect of LUB on DMI,"91 d, all LUB doses vs CON, P=0.585",no effect
same,ADG increase vs. CON,"LUB 1.38 mg·kg^−1, 91 d",11.8%
same,G:F increase compared with CON,"LUB 1.38 mg·kg^−1, 91 d",8.3%
same,ADG,LUB 1.38 mg·kg^−1 DM,1.42 kg
same,DMI,LUB 1.38 mg·kg^−1 DM,9.2 kg
same,G:F,LUB 1.38 mg·kg^−1 DM,0.156 kg:kg
same,Unshrunk final BW,LUB 1.38 mg·kg^−1 DM,583 kg
same,ADG increase vs. CON,"LUB 5.5 mg·kg^−1, 91 d",9.4%
same,G:F increase compared with CON,"LUB 5.5 mg·kg^−1, 91 d",9.7%
same,ADG,LUB 5.5 mg·kg^−1 DM,1.35 kg
same,DMI,LUB 5.5 mg·kg^−1 DM,8.8 kg
same,G:F,LUB 5.5 mg·kg^−1 DM,0.158 kg:kg
same,Unshrunk final BW,LUB 5.5 mg·kg^−1 DM,582 kg
same,ADG increase vs. CON,"LUB 22.0 mg·kg^−1, 91 d",12.6%
same,G:F increase compared with CON,"LUB 22.0 mg·kg^−1, 91 d",13.2%
same,ADG,LUB 22.0 mg·kg^−1 DM,1.43 kg
same,DMI,LUB 22.0 mg·kg^−1 DM,8.8 kg
same,G:F,LUB 22.0 mg·kg^−1 DM,0.163 kg:kg
same,Unshrunk final BW,LUB 22.0 mg·kg^−1 DM,582 kg
